Assay results published in ChEMBL document CHEMBL1201862, “PubChem BioAssay data set” (2004).
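Compound exposure: 48 hours, 5 concentrations, 96-well plates. Here, GI50 denotes the concentration required for 50% inhibition of growth.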 Active and inactive are the calls of the source. No stated cut-off is given here; in the data, active = GI50 up to about 1.1 µM and inactive = higher.

Key:
Assay in all cases: NCI-60 cell line screen, 48 h
786-0 = tested on: 786-0
A498 = tested on: A498
A549 = tested on: A549
ACHN = tested on: ACHN
CAKI-1 = tested on: CAKI-1
COLO 205 = tested on: COLO 205
DLD-1 = tested on: DLD-1
DMS-114 = tested on: DMS-114
DMS-273 = tested on: DMS-273
EKVX = tested on: EKVX
HCC 2998 = tested on: HCC 2998
HCT-116 = tested on: HCT-116
HL-60 = tested on: HL-60
HOP-18 = tested on: HOP-18
HOP-62 = tested on: HOP-62
HOP-92 = tested on: HOP-92
HT-29 = tested on: HT-29
IGROV-1 = tested on: IGROV-1
K562 = tested on: K562
KM-20L2 = tested on: KM-20L2
KM12 = tested on: KM12
LOX IMVI = tested on: LOX IMVI
M19-MEL = tested on: M19-MEL
MOLT-4 = tested on: MOLT-4
Malme-3M = tested on: Malme-3M
NCI-H226 = tested on: NCI-H226
NCI-H23 = tested on: NCI-H23
NCI-H460 = tested on: NCI-H460
NCI-H522 = tested on: NCI-H522
OVCAR-3 = tested on: OVCAR-3
OVCAR-4 = tested on: OVCAR-4
OVCAR-5 = tested on: OVCAR-5
OVCAR-8 = tested on: OVCAR-8
RPMI-8226 = tested on: RPMI-8226
RXF 393 = tested on: RXF 393
SF-268 = tested on: SF-268
SF-295 = tested on: SF-295
SF-539 = tested on: SF-539
SK-MEL-28 = tested on: SK-MEL-28
SK-OV-3 = tested on: SK-OV-3
SN12C = tested on: SN12C
SNB-19 = tested on: SNB-19
SNB-75 = tested on: SNB-75
SNB-78 = tested on: SNB-78
SR = tested on: SR
SW-620 = tested on: SW-620
TK-10 = tested on: TK-10
U-251 = tested on: U-251
UACC-257 = tested on: UACC-257
UACC-62 = tested on: UACC-62
UO-31 = tested on: UO-31
XF498 = tested on: XF498

Measured: GI50

O=S1(=O)OCCOS(=O)(=O)C1Cc1ccccc1
inactive: 786-0 32.5 µM | A498 36.8 µM | A549 44.3 µM | ACHN 51.5 µM | CAKI-1 55.8 µM | COLO 205 19.1 µM | DLD-1 43 µM | DMS-114 38.2 µM | DMS-273 45.4 µM | EKVX 33.7 µM | HCC 2998 20 µM | HCT-116 48.4 µM | HL-60 21.4 µM | HOP-18 23.5 µM | HOP-62 52.8 µM | HOP-92 70.6 µM | HT-29 63.5 µM | IGROV-1 28.8 µM | K562 61 µM | KM-20L2 43 µM | KM12 > 100 µM | LOX IMVI 35.7 µM | M19-MEL 39.5 µM | MOLT-4 25.3 µM | Malme-3M > 100 µM | NCI-H226 46.1 µM | NCI-H23 64.1 µM | NCI-H460 33.2 µM | NCI-H522 45.2 µM | OVCAR-3 20.8 µM | OVCAR-4 43.5 µM | OVCAR-5 > 100 µM | OVCAR-8 70.1 µM | RPMI-8226 18.7 µM | RXF 393 41.1 µM | SF-268 39.1 µM | SF-295 53.8 µM | SF-539 26.5 µM | SK-MEL-28 > 100 µM | SK-OV-3 > 100 µM | SN12C 46.1 µM | SNB-19 70.3 µM | SNB-75 47.3 µM | SNB-78 > 100 µM | SR 28.8 µM | SW-620 65 µM | TK-10 > 100 µM | U-251 24.4 µM | UACC-257 53.6 µM | UACC-62 40.8 µM | UO-31 57.8 µM | XF498 19.2 µM
